# Results: patent US20140378307A1, “AROMATIC PHOSPHATE ESTERS AS AGROCHEMICAL FORMULATION COMPONENT” (SYNGENTA LIMITED, priority 2011, published 2014)
# Tests used:
# Format in all cases: in vivo
# [1] = system: Chenopodium album (CHEAL), Abutilon theophrasti (ABUTH), Setaria viridis (SETVI), Xanthium strumarium (XANST); assay: Glasshouse weed kill, fomesafen with tricresyl phosphate, Phosflex 362, triphenyl phosphate; settings: fomesafen 60 or 120 g/ha, 200 l/ha; Turbocharge 0.5% v/v, other adjuvants 0.2% v/v; leaf area killed; mean over two rates, three replicates, four weeds, 7, 14 and 21 days
# Source text: (§1) Unless otherwise stated within a specific Example, all aromatic phosphate esters employed were initially formulated as 20% w′w emulsions containing 2% w/w Gohsenol®GLO3 (a polyvinyl alcohol, Nippon Gohsei, Hull, UK) and 2% Pluronic® PE10500 (an ethylene glycol-propylene glycol block copolymer, BASF Aktiengesellschaft, Ludwighsafen, Germany) as surfactants.
# The efficacy of the aromatic phosphate esters tricresyl phosphate, Phosflex®362 (2-ethylhexyl diphenyl phosphate) and triphenyl phosphate as adjuvants were tested in a glasshouse against four weed species using the herbicide fomesafen. An agrochemical composition was prepared containing 0.5% v/v of the adjuvant Turbocharge® in a track sprayer and was applied at a volume of 200 litres per hectare. The other adjuvants were tested at a rate of 0.2% v/v. Fomesafen was applied at a rate of either 60 or 120 grams per hectare on weeds which had been grown to the 1.3 or 1.4 leaf stage. […]
# (§2) Each spray test was replicated three times. The efficacy of the herbicide was assessed visually and expressed as a percentage of the leaf area killed. Samples were assessed at time periods of 7, 14 and 21 days following application. […]
# [2] = system: Chenopodium album (CHEAL), Abutilon theophrasti (ABUTH), Setaria viridis (SETVI), Xanthium strumarium (XANST); assay: Glasshouse weed kill, fomesafen with Phosflex 31L and comparison adjuvants
# Source text: as §1
# The efficacy of the aromatic phosphate ester Phosflex®31L (isopropylated triphenyl phosphate) as an adjuvant for the herbicide fomesafen was tested against four weed species in the glasshouse and compared to the well-known tank mix adjuvant Turbocharge® as well as to a aromatic ester lacking the a phosphate moiety, butylene glycol benzoate. An agrochemical composition was prepared containing 0.5% v/v of the adjuvant Turbocharge with the test compound in a track sprayer, and was applied at a volume of 200 litres per hectare. Fomesafen was applied at a rate of either 60 or 120 grams per hectare. The other adjuvants were applied at a rate of 0.2% v/v. Fomesafen was applied to weeds which had been grown to the 1.3 or 1.4 leaf stage. […]
# as §2
# [3] = system: Polygonum convolvulus (POLCO), Brachiaria platyphylla (BRAPL), Digitaria sanguinalis (DIGSA), Ambrosia artemisiifolia (AMBAR); assay: Glasshouse weed kill, mesotrione with Phosflex 31L and comparison adjuvants; settings: mesotrione 30 or 60 g/ha, 200 l/ha; Tween 20 0.5% v/v, other adjuvants 0.2% v/v; mean over two rates, three replicates, four weed species, three assessment timings
# Source text: as §1
# The efficacy of the aromatic phosphate ester Phosflex®31L (isopropylated triphenyl phosphate) as an adjuvant for the herbicide mesotrione was tested against four weed species in the glasshouse and compared to the known adjuvant Tween®20 as well as to a aromatic ester lacking the a phosphate moiety, butylene glycol benzoate. An agrochemical composition was prepared containing 0.5% v/v of the adjuvant Tween®20 with the test compound in a track sprayer, and was applied at a volume of 200 litres per hectare. The other adjuvants were tested at a rate of 0.2% v/v. Mesotrione was applied at a rate of either 30 or 60 grams per hectare to weeds which had been grown to the 1.3 or 1.4 leaf stage. The weed species were Polygonum convolvulus (POLCO), Brachiaria platyphylla (BRAPL), Digitaria sanguinalis (DIGSA) and Ambrosia artemisiifolia (AMBAR) […]
# [4] = system: Polygonum convolvulus (POLCO), Brachiaria platyphylla (BRAPL), Digitaria sanguinalis (DIGSA), Amaranthus tuberculatus (AMATU); assay: Glasshouse weed kill, mesotrione with tricresyl phosphate, Phosflex 362, triphenyl phosphate; settings: mesotrione 60 or 120 g/ha, 200 l/ha; Turbocharge 0.5% v/v, other adjuvants 0.2% v/v; leaf area killed; mean over two rates, three replicates, four weeds, 7, 14 and 21 days
# [5] = system: Abutilon theophrasti (ABUTH), Chenopodium album (CHEAL), Digitaria sanguinalis (DIGSA), Setaria viridis (SETVI); assay: Glasshouse weed kill, nicosulfuron with Phosflex 31L and comparison adjuvants; settings: nicosulfuron 30 or 60 g/ha, 200 l/ha; Atplus 411F 0.5% v/v, other adjuvants 0.2% v/v; leaf area killed; mean over two rates, three replicates, four weed species, 14 and 21 days
# Source text: as §1
# The efficacy of the aromatic phosphate ester Phosflex®31L (isopropylated triphenyl phosphate) as an adjuvant for the herbicide nicosulfuron was tested against four weed species in the glasshouse and compared to the well-known tank mix adjuvant Atplus®411F as well as to a aromatic ester lacking the a phosphate moiety, butylene glycol benzoate. An agrochemical composition was prepared containing 0.5% v/v of the adjuvant Atplus 411F with the test compound in a track sprayer, and was applied at a volume of 200 litres per hectare. The other adjuvants were used at a rate of 0.2% v/v. Nicosulfuron was applied at a rate of either 30 or 60 grams per hectare. Nicosulfuron was applied to weeds which had been grown to the 1.3 or 1.4 leaf stage. […]
# (§3) Each spray test was replicated three times. The efficacy of the herbicide was assessed visually and expressed as a percentage of the leaf area killed. Samples were assessed at time periods of 14 and 21 days following application. […]
# [6] = system: Chenopodium album (CHEAL), Abutilon theophrasti (ABUTH), Setaria viridis (SETVI), Digitaria sanguinalis (DIGSA); assay: Glasshouse weed kill, nicosulfuron with tricresyl phosphate, Phosflex 362, triphenyl phosphate; settings: four weed species; for efficacy as adjuvant for nicosulfuron (in words): adjuvant 0.2% v/v, conclusion from Table 7
# Source text: as §1
# The efficacy of the aromatic phosphate esters tricresyl phosphate, Phosflex®362 (2-ethylhexyl diphenyl phosphate) and triphenyl phosphate were tested in a glasshouse against four weed species using the herbicide nicosulfuron. An agrochemical composition was prepared containing 0.5% v/v of the adjuvant Atplus® 411F in a track sprayer, and was applied at a volume of 200 litres per hectare. The other adjuvants were tested at a arte of 0.2% v/v. Nicosulfuron was applied at a rate of either 30 or 60 grams of pesticide per hectare to weeds which had been grown to the 1.3 or 1.4 leaf stage. The weed species were Chenopodium album (CHEAL), Abutilon theophrasti (ABUTH), Setaria viridis (SETVI) and Digitaria sanguinalis (DIGSA).
# Each spray test was replicated three times. The efficacy of the herbicide was assessed visually and expressed as a percentage of the leaf area killed. Samples were assessed at time periods of 14 and 21 days following application. The results shown in Table 7 below are mean averages over the two rates of nicosulfuron, three replicates, four weed species and the two assessment timings, and are compared to the efficacy of nicosulfuron in the absence of adjuvant and nicosulfuron in the presence of the known tank mix adjuvant Atplus®411F.
# [7] = system: Septoria tritici; settings: S. tritici on wheat, adjuvant 0.2% v/v, conclusion from Table 2
# [8] = system: Septoria tritici; settings: S. tritici on wheat, adjuvant 0.2% v/v, conclusion from Table 1
# [9] = system: Alopecurus myosuroides (ALOMY), Avena fatua (AVEFA), Lolium perenne (LOLPE), Setaria viridis (SETVI); assay: Glasshouse weed kill, pinoxaden with Phosflex 31L and comparison adjuvants; settings: pinoxaden 7.5 or 15 g/ha, 200 l/ha; TEHP 0.5% v/v, other adjuvants 0.2% v/v; leaf area killed; mean over two rates, three replicates, four weed species, 14 and 21 days
# Description: as §1
# The efficacy of the aromatic phosphate ester Phosflex®31L (isopropylated triphenyl phosphate) as an adjuvant was tested in a glasshouse against four weed species using the herbicide pinoxaden. An agrochemical composition was prepared containing 0.2% v/v of the adjuvant in a track sprayer and was applied at a volume of 200 litres per hectare. Pinoxaden was applied at either 7.5 or 15 grams of pesticide per hectare on each of the weed species. The adjuvant TEHP was tested at a different rate from the other adjuvants, it being used at 0.5% v/v. The weed species and their growth stage at spraying were Alopecurus myosuroides (ALOMY; growth stage 13), Avena fatua (AVEFA; growth stage 12); Lolium perenne (LOLPE; growth stage 13), Setaria viridis (SETVI; growth stage 14).
# as §3
# [10] = system: Alopecurus myosuroides (ALOMY), Avena fatua (AVEFA), Lolium perenne (LOLPE), Setaria viridis (SETVI); assay: Glasshouse weed kill, pinoxaden with tricresyl phosphate, Phosflex 362, triphenyl phosphate; settings: pinoxaden 7.5 or 15 g/ha, 200 l/ha; TEHP 0.5% v/v, other adjuvants 0.2% v/v; leaf area killed; mean over two rates, three replicates, four weeds, 14 and 21 days
# Source text: as §1
# The efficacy of the aromatic phosphate esters tricresyl phosphate, Phosflex®362 (2-ethylhexyl diphenyl phosphate) and triphenyl phosphate were tested in a glasshouse against four weed species using the herbicide pinoxaden. An agrochemical composition was prepared containing 0.5% v/v of the adjuvant TEHP in a track sprayer and was applied at a volume of 200 litres per hectare. The other adjuvants were tested at a rate of 0.2% v/v. Pinoxaden was applied at either 7.5 or 15 grams per hectare on each of the weed species. The weed species and their growth stage at spraying were Alopecurus myosuroides (ALOMY; growth stage 13), Avena fatua (AVEFA; growth stage 12); Lolium perenne (LOLPE; growth stage 13), Setaria viridis (SETVI; growth stage 14).
# as §3
compound,measurement,setting,value
"CS(=O)(=O)NC(=O)c1cc(Oc2ccc(C(F)(F)F)cc2Cl)ccc1[N+](=O)[O-] [Fomesafen, fomesafen]","Mean percentage kill, Mean across species",[1],14.3%
same,"Mean percentage kill, Mean across species","[2]; fomesafen 60 or 120 g/ha, 200 l/ha, Turbocharge 0.5% v/v, other adjuvants 0.2% v/v, leaf area killed, mean over two rates, three replicates, four weed species, 7, 14 and 21 days",37.7 C %
"CS(=O)(=O)c1ccc(C(=O)C2C(=O)CCCC2=O)c([N+](=O)[O-])c1 [Mesotrione, mesotrione]","Mean percentage kill, Mean across species",[3],47.2 B %
same,"Mean percentage kill, Mean across species",[4],34.0 A %
"COc1cc(OC)nc(NC(=O)NS(=O)(=O)c2ncccc2C(=O)N(C)C)n1 [Nicosulfuron, nicosulfuron]","Mean percentage kill, Mean across species",[5],74.9 B %
same,"Mean percentage kill, Mean across species","[6]; nicosulfuron 30 or 60 g/ha, 200 l/ha, Atplus 411F 0.5% v/v, other adjuvants 0.2% v/v, leaf area killed, mean over two rates, three replicates, 14 and 21 days",42.5%
"CCCCC(CC)COP(=O)(Oc1ccccc1)Oc1ccccc1 (stereo not shown) [Phosflex®362, 2-ethylhexyl diphenyl phosphate]",efficacy as adjuvant for cyproconazole (in words),[7],performed best as an adjuvant out of the compounds tested
same,efficacy as adjuvant for isopyrazam (in words),[8],more efficacious as an adjuvant than any of the other compounds tested
same,efficacy as adjuvant for nicosulfuron (in words),[6],performing particularly well
"CCc1cc(C)cc(CC)c1-c1c(OC(=O)C(C)(C)C)n2n(c1=O)CCOCC2 [Pinoxaden, pinoxaden]","Mean percentage kill, Mean across species",[9],17.4 D %
same,"Mean percentage kill, Mean across species",[10],16.0 C %
"O=C(OCCCCO)c1ccccc1 [the ester lacking the phosphate moiety, butylene glycol benzoate]",efficacy as adjuvant for fomesafen (in words),"[2]; four weed species, adjuvant 0.2% v/v, conclusion from Table 4",is not
tricresyl phosphate [tricresylphosphate],efficacy as adjuvant for nicosulfuron (in words),[6],performing particularly well
